“And” between values parts separate entries of the source, which are not always exact repeats. Equal values may be shown once. Read-outs that look alike come from different tables or passages of the source. Each block holds one compound with its values, some of them ahead of it.
Legend:
[1] = Pharmacokinetics of obeticholic acid taken orally, in a monocomposition or with UDCA; format: in vivo
Experimental: A study of the pharmacokinetics of obeticholic acid in a monocom position and as part of a composition with ursodeoxycholic acid when taken orally was conducted.

[2] = test system: patients diagnosed with PBC; assay: Double-blind clinical study: biochemical and molecular markers in blood of PBC patients treated with UDCA or UDCA+OCA; format: in vivo, human; conditions: blood plasma
Experimental: To determine the concentration level values of the markers in the blood serum, chemiluminescence and enzyme immunoassay methods were used.
A double-blind clinical study was conducted on the effectiveness of the combined pharmaceutical composition comprising UDCA and OCA compared with the monocomposition comprising only UDCA for the patients with the following concentration level values of the claimed group of the markers (corresponding to 1 Stage of PBC): • IL-6—at least 10%; • Nf-kB—at least 5%; • MCP-1/CCL2—at least 5%; • Bcl-2—at least 5%; • TNF-α—at least 12%; • MDA—at least 0.5%.
The patients diagnosed with PBC were divided into 3 groups depending on the treatment regimen:
2) Group UDCA 15 mg/kg+OCA 5 mg;
3) Group UDCA 15 mg/kg+OCA 10 mg.
After the treatment, venous blood samples were taken from the patients and the concentrations of biochemical and molecular markers were determined.
As markers of the treatment effectiveness, two groups of markers were used: biochemical and molecular biological.
The first group included: ALT, AST, GGT (Gamma-glutamyl Transferase), AP and total bilirubin.
The second group included: TNF-α, IL-6, Nf-kB, MCP-1/CCL2, BCL-2, and MDA.

patients with PBC = assay: Effectiveness of the PBC treatment using various regimens (positive response, Paris2 system, 12 months); format: in vivo, human; conditions: Paris2 criteria
Experimental: A double-blind clinical study on the effectiveness of the combined pharmaceutical composition comprising UDCA and OCA compared to UDCA was conducted.
To study the effectiveness, the tablet embodiments No. 15 and No. 16 were used.
A study on the effectiveness of the various treatment regimens for the patients with PBC was conducted. A total of three treatment regimens were used in the study: • 1) UDCA monocomposition at a dose of 15 mg/kg/day. • 2) Combined pharmaceutical composition in the pharmaceutical form with the modified release and at a dose of UDCA 15 mg/kg+OCA 5 mg per day. • 3) Combined pharmaceutical composition in the pharmaceutical form with the modified release and at a dose of UDCA 15 mg/kg+OCA 10 mg per day.
The studies were carried out for 12 months, during which the quality of the treatment was assessed by measuring biochemical and molecular biological markers (see above).
The evaluation of the effectiveness of the treatment was carried out on the basis of the Paris2 system, according to which the criteria for a satisfactory treatment are: • ALT level≤3-fold upper limit of normal (ULN); • AST level≤2-fold ULN; • normal bilirubin level.

[3] = month 6 of treatment, listed as UDCA 15 mg/kg
[4] = month 12 of treatment, listed as UDCA 15 mg/kg

AUC(0-t) ([1]; in vivo, po): 34.8 ng·h/mL
bioavailability ([1]; in vivo, po, read-out: Bioavailability): 89%
Cmax ([1]; in vivo, po, read-out: Cmax): 16.7 ng/mL
Tmax ([1]; listed as OCA 5 mg): 0.667 h
AUCt ([1]; listed as OCA 10 mg): 66.1 ng·h/mL
Cmax ([1]; listed as OCA 10 mg): 26.4 ng/mL
Tmax ([1]; listed as OCA 10 mg): 1.5 h
bioavailability ([1]; listed as OCA 10 mg): 91%
SMILES: CC[C@H]1[C@@H](O)[C@@H]2[C@H](CC[C@]3(C)[C@@H]([C@H](C)CCC(=O)O)CC[C@@H]23)[C@@]2(C)CC[C@@H](O)C[C@@H]12 [OCA, obeticholic acid]

SMILES: C[C@H](CCC(=O)O)[C@H]1CC[C@H]2[C@@H]3[C@@H](O)C[C@@H]4C[C@H](O)CC[C@]4(C)[C@H]3CC[C@]12C [UDCA, ursodeoxycholic acid]
ALT ([2]; month 1 of treatment): 80.4 U/l
ALT, in % of the initial value ([2]; month 1 of treatment): 97.22%
AP ([2]; month 1 of treatment): 352.5 U/l
AP, in % of the initial value ([2]; month 1 of treatment): 97.20%
AST ([2]; month 1 of treatment): 100.7 U/l
AST, in % of the initial value ([2]; month 1 of treatment): 95.72%
Bcl-2 ([2]; month 1 of treatment): 0.68 U/ml
Bcl-2, in % of the initial value ([2]; month 1 of treatment): 94.44%
GGT ([2]; month 1 of treatment): 198 U/l
GGT, in % of the initial value ([2]; month 1 of treatment): 95.42%
IL-6 ([2]; month 1 of treatment): 23.35 pg/mL
IL-6, in % of the initial value ([2]; month 1 of treatment): 99.19%
MCP-1/CCL2 ([2]; month 1 of treatment): 465.4 pg/mL
MCP-1/CCL2, in % of the initial value ([2]; month 1 of treatment): 99.34%
MDA ([2]; month 1 of treatment): 22.87 nmol/mL
MDA, in % of the initial value ([2]; month 1 of treatment): 99.09%
Nf-kB ([2]; month 1 of treatment): 64.4 pg/mL
Nf-kB, in % of the initial value ([2]; month 1 of treatment): 98.32%
TNF-α ([2]; month 1 of treatment): 0.33 ng/mL
TNF-α, in % of the initial value ([2]; month 1 of treatment): 100.00%
Total bilirubin ([2]; month 1 of treatment): 39.8 µmol/L
Total bilirubin, in % of the initial value ([2]; month 1 of treatment): 96.18%
ALT ([2]; month 3 of treatment): 74.81 U/l
ALT, in % of the initial value ([2]; month 3 of treatment): 90.46%
AP ([2]; month 3 of treatment): 290.6 U/l
AP, in % of the initial value ([2]; month 3 of treatment): 88.10%
AST ([2]; month 3 of treatment): 87.3 U/l
AST, in % of the initial value ([2]; month 3 of treatment): 82.98%
Bcl-2 ([2]; month 3 of treatment): 0.62 U/ml
Bcl-2, in % of the initial value ([2]; month 3 of treatment): 86.11%
GGT ([2]; month 3 of treatment): 178.8 U/l
GGT, in % of the initial value ([2]; month 3 of treatment): 86.17%
IL-6 ([2]; month 3 of treatment): 22.95 pg/mL
IL-6, in % of the initial value ([2]; month 3 of treatment): 97.49%
MCP-1/CCL2 ([2]; month 3 of treatment): 448 pg/mL
MCP-1/CCL2, in % of the initial value ([2]; month 3 of treatment): 95.62%
MDA ([2]; month 3 of treatment): 22.54 nmol/mL
MDA, in % of the initial value ([2]; month 3 of treatment): 97.66%
Nf-kB ([2]; month 3 of treatment): 64.1 pg/mL
Nf-kB, in % of the initial value ([2]; month 3 of treatment): 97.86%
TNF-α ([2]; month 3 of treatment): 0.324 ng/mL
TNF-α, in % of the initial value ([2]; month 3 of treatment): 98.18%
Total bilirubin ([2]; month 3 of treatment): 33.8 µmol/L
Total bilirubin, in % of the initial value ([2]; month 3 of treatment): 87.50%
ALT, in % of the initial value [2, 3]: 67.32% and 82.47%
AP, in % of the initial value [2, 3]: 63.93% and 74.45%
AST, in % of the initial value [2, 3]: 67.24% and 77.38%
Bcl-2, in % of the initial value [2, 3]: 95.24% and 80.56%
GGT, in % of the initial value [2, 3]: 65.16% and 75.28%
IL-6, in % of the initial value [2, 3]: 85.81% and 93.46%
MCP-1/CCL2, in % of the initial value [2, 3]: 88.00% and 92.08%
MDA, in % of the initial value [2, 3]: 95.36% and 96.92%
Nf-kB, in % of the initial value [2, 3]: 91.91% and 95.88%
TNF-α, in % of the initial value [2, 3]: 87.88% and 95.45%
ALT ([2]; month 9 of treatment): 62.47 U/l
ALT, in % of the initial value ([2]; month 9 of treatment): 75.54%
AP ([2]; month 9 of treatment): 247.5 U/l
AP, in % of the initial value ([2]; month 9 of treatment): 69.18%
AST ([2]; month 9 of treatment): 74.5 U/l
AST, in % of the initial value ([2]; month 9 of treatment): 70.82%
Bcl-2 ([2]; month 9 of treatment): 0.54 U/ml
Bcl-2, in % of the initial value ([2]; month 9 of treatment): 75.00%
GGT ([2]; month 9 of treatment): 141.5 U/l
GGT, in % of the initial value ([2]; month 9 of treatment): 68.19%
IL-6 ([2]; month 9 of treatment): 21.48 pg/mL
IL-6, in % of the initial value ([2]; month 9 of treatment): 91.25%
MCP-1/CCL2 ([2]; month 9 of treatment): 419.7 pg/mL
MCP-1/CCL2, in % of the initial value ([2]; month 9 of treatment): 89.58%
MDA ([2]; month 9 of treatment): 22.12 nmol/mL
MDA, in % of the initial value ([2]; month 9 of treatment): 95.84%
Nf-kB ([2]; month 9 of treatment): 61.4 pg/mL
Nf-kB, in % of the initial value ([2]; month 9 of treatment): 93.74%
TNF-α ([2]; month 9 of treatment): 0.3 ng/mL
TNF-α, in % of the initial value ([2]; month 9 of treatment): 90.91%
Total bilirubin ([2]; month 9 of treatment): 28.03 µmol/L
Total bilirubin, in % of the initial value ([2]; month 9 of treatment): 70.49%
ALT ([2]; month 12 of treatment): 55.67 U/l
ALT, in % of the initial value ([2]; month 12 of treatment): 67.32%
AP ([2]; month 12 of treatment): 235.36 U/l
AP, in % of the initial value ([2]; month 12 of treatment): 63.93%
AST ([2]; month 12 of treatment): 70.73 U/l
Bcl-2 ([2]; month 12 of treatment): 0.52 U/ml
GGT ([2]; month 12 of treatment): 135.2 U/l
GGT, in % of the initial value ([2]; month 12 of treatment): 65.16%
IL-6 ([2]; month 12 of treatment): 20.2 pg/mL
IL-6, in % of the initial value ([2]; month 12 of treatment): 85.81%
MCP-1/CCL2 ([2]; month 12 of treatment): 412.3 pg/mL
MCP-1/CCL2, in % of the initial value ([2]; month 12 of treatment): 88.00%
MDA ([2]; month 12 of treatment): 22.01 nmol/mL
MDA, in % of the initial value ([2]; month 12 of treatment): 95.36%
Nf-kB ([2]; month 12 of treatment): 60.2 pg/mL
Nf-kB, in % of the initial value ([2]; month 12 of treatment): 91.91%
TNF-α ([2]; month 12 of treatment): 0.29 ng/mL
TNF-α, in % of the initial value ([2]; month 12 of treatment): 87.88%
Total bilirubin ([2]; month 12 of treatment): 26.03 µmol/L
Total bilirubin, in % of the initial value ([2]; month 12 of treatment): 64.58%
AST, in % of the initial value [2, 4]: 67.24% and 67.23%
Bcl-2, in % of the initial value [2, 4]: 72% and 72.22%
Number of patients with positive response to treatment (%) (patients with PBC): 58.82%
Number of patients with positive response to treatment (number) (patients with PBC; groups of 68, 65, 63 patients): 40

From patent US20230114753A1, “USE OF A GROUP OF MARKERS FOR DIAGNOSING AND ADJUSTING TREATMENT OF PRIMARY BILIARY CHOLANGITIS, PHARMACEUTICAL COMPOSITION AND SOLID DOSAGE FORM FOR TREATING PRIMARY BILIARY CHOLANGITIS” (MILI HEALTHCARE TRADE DMCC, LIMITED LIABILITY COMPANY, priority 2020, published 2023)
